Results from ChEMBL document CHEMBL3046559, “Sterile oat (Avena sterilis L.) cross-resistance profile to ACCase-inhibiting herbicides in Greece” (2012).

Key:
Format in all cases: functional
Avena sterilis [1] = assay: Herbicidal activity against Avena sterilis accession P12 assessed as weed survival at 1 times field recommended herbicide dose
Avena sterilis [2] = assay: Herbicidal activity against Avena sterilis accession P10S assessed as induction of weed mortality
Avena sterilis [3] = assay: Herbicidal activity against Avena sterilis accession P06S assessed as weed survival at 1/32 times field recommended herbicide dose
Avena sterilis [4] = assay: Herbicidal activity against Avena sterilis accession P20 assessed as weed survival at 16 times field recommended herbicide dose
Avena sterilis [5] = assay: Herbicidal activity against Avena sterilis accession P14 assessed as induction of weed mortality
Avena sterilis [6] = assay: Herbicidal activity against Avena sterilis accession P18 assessed as induction of weed mortality
Avena sterilis [7] = assay: Herbicidal activity against Avena sterilis accession P19S assessed as induction of weed mortality
Avena sterilis [8] = assay: Herbicidal activity against Avena sterilis accession P15 assessed as weed survival at 16 times field recommended herbicide dose
Avena sterilis [9] = assay: Herbicidal activity against Avena sterilis accession P21S assessed as weed survival at 1/4 times field recommended herbicide dose
Avena sterilis [10] = assay: Herbicidal activity against Avena sterilis accession P05 assessed as induction of weed mortality
Avena sterilis [11] = assay: Herbicidal activity against Avena sterilis accession P12 assessed as weed survival at 32 times field recommended herbicide dose
Avena sterilis [12] = assay: Herbicidal activity against Avena sterilis accession P12 assessed as induction of weed mortality
Avena sterilis [13] = assay: Herbicidal activity against Avena sterilis accession P07 assessed as weed survival at 16 times field recommended herbicide dose
Avena sterilis [14] = assay: Herbicidal activity against Avena sterilis accession P03 assessed as weed survival at 8 times field recommended herbicide dose
Avena sterilis [15] = assay: Herbicidal activity against Avena sterilis accession P16 assessed as weed survival at 4 times field recommended herbicide dose
Avena sterilis [16] = assay: Herbicidal activity against Avena sterilis accession P09 assessed as weed survival at 16 times field recommended herbicide dose
Avena sterilis [17] = assay: Herbicidal activity against Avena sterilis accession P05 assessed as weed survival at 1 times field recommended herbicide dose
Avena sterilis [18] = assay: Herbicidal activity against Avena sterilis accession P17 assessed as weed survival at 1 times field recommended herbicide dose
Avena sterilis [19] = assay: Herbicidal activity against Avena sterilis accession P22 assessed as weed survival at 32 times field recommended herbicide dose
Avena sterilis [20] = assay: Herbicidal activity against Avena sterilis accession P21S assessed as induction of weed mortality
Avena sterilis [21] = assay: Herbicidal activity against Avena sterilis accession P01 assessed as weed survival at 1 times field recommended herbicide dose
Avena sterilis [22] = assay: Herbicidal activity against Avena sterilis accession P02 assessed as weed survival at 32 times field recommended herbicide dose
Avena sterilis [23] = assay: Herbicidal activity against Avena sterilis accession P06S assessed as weed survival at 1/8 times field recommended herbicide dose
Avena sterilis [24] = assay: Herbicidal activity against Avena sterilis accession P15 assessed as induction of weed mortality
Avena sterilis [25] = assay: Herbicidal activity against Avena sterilis accession P17 assessed as induction of weed mortality
Avena sterilis [26] = assay: Herbicidal activity against Avena sterilis accession P17 assessed as weed survival at 8 times field recommended herbicide dose
Avena sterilis [27] = assay: Herbicidal activity against Avena sterilis accession P10S assessed as weed survival at 1/32 times field recommended herbicide dose
Avena sterilis [28] = assay: Herbicidal activity against Avena sterilis accession P04 assessed as induction of weed mortality
Avena sterilis [29] = assay: Herbicidal activity against Avena sterilis accession P15 assessed as weed survival at 32 times field recommended herbicide dose
Avena sterilis [30] = assay: Herbicidal activity against Avena sterilis accession P21S assessed as weed survival at 1/16 times field recommended herbicide dose
Avena sterilis [31] = assay: Herbicidal activity against Avena sterilis accession P07 assessed as weed survival at 32 times field recommended herbicide dose
Avena sterilis [32] = assay: Herbicidal activity against Avena sterilis accession P05 assessed as weed survival at 32 times field recommended herbicide dose
Avena sterilis [33] = assay: Herbicidal activity against Avena sterilis accession P14 assessed as weed survival at 16 times field recommended herbicide dose
Avena sterilis [34] = assay: Herbicidal activity against Avena sterilis accession P13S assessed as weed survival at 1/16 times field recommended herbicide dose
Avena sterilis [35] = assay: Herbicidal activity against Avena sterilis accession P21S assessed as weed survival at 1/8 times field recommended herbicide dose
Avena sterilis [36] = assay: Herbicidal activity against Avena sterilis accession P03 assessed as induction of weed mortality
Avena sterilis [37] = assay: Herbicidal activity against Avena sterilis accession P06S assessed as induction of weed mortality
Avena sterilis [38] = assay: Herbicidal activity against Avena sterilis accession P07 assessed as weed survival at 1 times field recommended herbicide dose
Avena sterilis [39] = assay: Herbicidal activity against Avena sterilis accession P10S assessed as weed survival at 1 times field recommended herbicide dose
Avena sterilis [40] = assay: Herbicidal activity against Avena sterilis accession P22 assessed as weed survival at 16 times field recommended herbicide dose
Avena sterilis [41] = assay: Herbicidal activity against Avena sterilis accession P18 assessed as weed survival at 4 times field recommended herbicide dose
Avena sterilis [42] = assay: Herbicidal activity against Avena sterilis accession P22 assessed as induction of weed mortality
Avena sterilis [43] = assay: Herbicidal activity against Avena sterilis accession P17 assessed as weed survival at 16 times field recommended herbicide dose
Avena sterilis [44] = assay: Herbicidal activity against Avena sterilis accession P12 assessed as weed survival at 8 times field recommended herbicide dose
Avena sterilis [45] = assay: Herbicidal activity against Avena sterilis accession P11 assessed as weed survival at 16 times field recommended herbicide dose
Avena sterilis [46] = assay: Herbicidal activity against Avena sterilis accession P15 assessed as weed survival at 1 times field recommended herbicide dose
Avena sterilis [47] = assay: Herbicidal activity against Avena sterilis accession P01 assessed as weed survival at 16 times field recommended herbicide dose
Avena sterilis [48] = assay: Herbicidal activity against Avena sterilis accession P17 assessed as weed survival at 4 times field recommended herbicide dose
Avena sterilis [49] = assay: Herbicidal activity against Avena sterilis accession P18 assessed as weed survival at 16 times field recommended herbicide dose
Avena sterilis [50] = assay: Herbicidal activity against Avena sterilis accession P03 assessed as weed survival at 16 times field recommended herbicide dose
Avena sterilis [51] = assay: Herbicidal activity against Avena sterilis accession P21S assessed as weed survival at 1 times field recommended herbicide dose
Avena sterilis [52] = assay: Herbicidal activity against Avena sterilis accession P19S assessed as weed survival at 1/8 times field recommended herbicide dose
Avena sterilis [53] = assay: Herbicidal activity against Avena sterilis accession P18 assessed as weed survival at 1 times field recommended herbicide dose
Avena sterilis [54] = assay: Herbicidal activity against Avena sterilis accession P09 assessed as weed survival at 1 times field recommended herbicide dose
Avena sterilis [55] = assay: Herbicidal activity against Avena sterilis accession P08 assessed as weed survival at 32 times field recommended herbicide dose
Avena sterilis [56] = assay: Herbicidal activity against Avena sterilis accession P04 assessed as weed survival at 4 times field recommended herbicide dose
Avena sterilis [57] = assay: Herbicidal activity against Avena sterilis accession P18 assessed as weed survival at 32 times field recommended herbicide dose
Avena sterilis [58] = assay: Herbicidal activity against Avena sterilis accession P05 assessed as weed survival at 8 times field recommended herbicide dose

## C#CCOC(=O)[C@@H](C)Oc1ccc(Oc2ncc(Cl)cc2F)cc1 [CLODINAFOP PROPARGYL]
Avena sterilis [1]
  Survival: 100%
Avena sterilis [2]
  GR50: 8 gAi/ha
Avena sterilis [3]
  Survival: 100%
Avena sterilis [4]
  Survival: 57%
Avena sterilis [5]
  GR50: 1219 gAi/ha
Avena sterilis [6]
  GR50: 520 gAi/ha
Avena sterilis [7]
  GR50: 29 gAi/ha
Avena sterilis [8]
  Survival: 97%
Avena sterilis [9]
  Survival: 60%
Avena sterilis [10]
  GR50: 180 gAi/ha
Avena sterilis [11]
  Survival: 83%
Avena sterilis [12]
  GR50: >1312 gAi/ha
Avena sterilis [13]
  Survival: 0%
Avena sterilis [14]
  Survival: 97%
Avena sterilis [15]
  Survival: 50%
Avena sterilis [16]
  Survival: 0%
Avena sterilis [17]
  Survival: 90%
Avena sterilis [18]
  Survival: 97%
Avena sterilis [19]
  Survival: 0%
Avena sterilis [20]
  GR50: 11 gAi/ha
Avena sterilis [21]
  Survival: 97%
Avena sterilis [22]
  Survival: 87%
Avena sterilis [23]
  Survival: 80%
Avena sterilis [24]
  GR50: >1312 gAi/ha
Avena sterilis [25]
  GR50: 283 gAi/ha
Avena sterilis [26]
  Survival: 40%
Avena sterilis [27]
  Survival: 83%
Avena sterilis [28]
  GR50: >1312 gAi/ha
Avena sterilis [29]
  Survival: 93%
Avena sterilis [30]
  Survival: 90%
Avena sterilis [31]
  Survival: 0%
Avena sterilis [32]
  Survival: 0%
Avena sterilis [33]
  Survival: 77%
Avena sterilis [34]
  Survival: 70%
Avena sterilis [35]
  Survival: 77%
Avena sterilis [36]
  GR50: >1312 gAi/ha
Avena sterilis [37]
  GR50: 9 gAi/ha
Avena sterilis [38]
  Survival: 13%
Avena sterilis [39]
  Survival: 0%
Avena sterilis [40]
  Survival: 0%
Avena sterilis [41]
  Survival: 80%
Avena sterilis [42]
  GR50: 122 gAi/ha
Avena sterilis [43]
  Survival: 27%
Avena sterilis [44]
  Survival: 100%
Avena sterilis [45]
  Survival: 97%
Avena sterilis [46]
  Survival: 100%
Avena sterilis [47]
  Survival: 70%
Avena sterilis [48]
  Survival: 67%
Avena sterilis [49]
  Survival: 40%
Avena sterilis [50]
  Survival: 87%
Avena sterilis [51]
  Survival: 0%
Avena sterilis [52]
  Survival: 97%
Avena sterilis [53]
  Survival: 80%
Avena sterilis [54]
  Survival: 63%
Avena sterilis [55]
  Survival: 67%
Avena sterilis [56]
  Survival: 100%
Avena sterilis [57]
  Survival: 20%
Avena sterilis [58]
  Survival: 40%
